One test concerns Plasmodium falciparum. Put plainly: Antiplasmodial activity against chloroquine-resistant Plasmodium falciparum W2. The format is functional, organism-based.
The subject of test [1] is Mycobacterium tuberculosis. As to the kind of experiment: Antituberculosis activity against Mycobacterium tuberculosis H37Rv at 128 ug/mL. The format is functional.
For another test, the system named is West Nile virus. Put plainly: Antiviral activity against West Nile virus. The format is functional, organism-based.
The test system of the next test is Hepatitis C virus. As to the kind of experiment: Antiviral activity against HCV. The note with it: Hepacivirus hominis. The test is classed as functional, organism-based.
For another test, the system named is Influenza A virus. As to the kind of experiment: Antiviral activity against Influenza A virus H1N1. The format is functional, organism-based.
A further test has as its system Influenza A virus H3N2. Put plainly: Antiviral activity against Influenza A virus H3N2. The test is classed as functional, organism-based.
For another test, the system named is Influenza B virus. Put plainly: Antiviral activity against Influenza B virus. The test is classed as functional, organism-based.
Test [2] relates to Venezuelan equine encephalitis virus. As to the kind of experiment: Antiviral activity against Venezuelan equine encephalomyelitis virus. The test is classed as functional, organism-based.
The test system of the next test is Yellow fever virus. As to the kind of experiment: Antiviral activity against yellow fever virus. The format is functional, organism-based.
For the next test, the system named is dengue virus type 2. Put plainly: Antiviral activity against Dengue virus type 2. The test is classed as functional, organism-based.
For test [3], the system named is Respiratory syncytial virus. Put plainly: Antiviral activity against RSV type A. The format is functional, organism-based.
The test system of another test is Hepatitis B virus. Put plainly: Antiviral activity against Hepatitis B virus. The test is classed as functional, organism-based.
The test system of a further test is Human gammaherpesvirus 4. As to the kind of experiment: Antiviral activity against Epstein-Barr virus. The test is classed as functional, organism-based.
For another test, the system named is CCRF-CEM. As to the kind of experiment: Cytotoxicity against human CCRF-CEM cells. The test is classed as functional, cell-based.

Experimental findings from ChEMBL document CHEMBL1158127, “Bioactive compounds from the gorgonian Briareum polyanthes. Correction of the structures of four asbestinane-type diterpenes” (J Nat Prod, 2006) are described below.

SMILES strings stand for the structures. In brackets after ≈: the same amount, converted by molar mass. Activity calls are given as the source filed them. The calls are words filed in the database; no cut-off is given here.

A word on the IC50: it is the concentration at which inhibition is half-maximal. Take `C=C1CC2OC3[C@H]4C(C[C@@H](C)[C@@H](OC(C)=O)[C@@H]24)[C@@H](C)CO[C@@]3(C)CC[C@H]1OO` (stereo partly drawn): in the test on Plasmodium falciparum, it took 13 µg/mL (≈ 33 µM) to reach half-maximal inhibition (IC50). The outcome (in [1]; in the test on West Nile virus; in the test with Hepatitis C virus; in the test with Influenza A virus; in the test on Influenza A virus H3N2; in the test with Influenza B virus) was inactive. Further, the result (in test [2]; in the test on Yellow fever virus; in the test on dengue virus type 2; in [3]; in the test with Hepatitis B virus) was inactive.
As to `CC(=O)O[C@H]1[C@H]2C3/C=C(/C)[C@H](O)CC[C@]4(C)OC[C@H](C)C(C[C@H]1C)[C@@H]2C4O3` (stereo partly drawn), the IC50 in the test with Plasmodium falciparum is 18 µg/mL (≈ 47.6 µM). Besides, the result (in test [1]; in the test on West Nile virus; with Hepatitis C virus; in the test on Influenza A virus; in the test on Influenza A virus H3N2; in the test on Influenza B virus) was inactive. For the same molecule, the result (in [2]; in the test on Yellow fever virus; in the test with dengue virus type 2; in test [3]; in the test with Hepatitis B virus) was inactive.
Take `CC(=O)O[C@H]1[C@H]2C3C[C@](C)(O)C(=O)CC[C@]4(C)OC[C@H](C)C(C[C@H]1C)[C@@H]2C4O3` (stereo partly drawn): half-maximal inhibition in the test with Plasmodium falciparum (IC50) was put at 18 µg/mL (≈ 45.6 µM).
In the test with Plasmodium falciparum, `C=C1CC2OC3[C@H]4C(C[C@@H](C)[C@@H](OC(C)=O)[C@@H]24)[C@@H](C)CO[C@@]3(C)CC[C@H]1O` (stereo partly drawn) gave an IC50 of 13 µg/mL (≈ 34.3 µM). The result (in test [1]; in the test on West Nile virus; in the test with Hepatitis C virus; in the test on Influenza A virus; in the test on Influenza A virus H3N2; in the test on Influenza B virus) was inactive. In addition, the outcome (in [2]; in the test on Yellow fever virus; in the test with dengue virus type 2; in test [3]; in the test on Hepatitis B virus) was inactive.
For `C=C1CC2OC3[C@H]4C(C[C@@H](C)[C@@H](OC(C)=O)[C@@H]24)[C@@H](C)CO[C@@]3(C)CCC1=O` (stereo partly drawn), the IC50 in the test with Plasmodium falciparum was determined as 9 µg/mL (≈ 23.9 µM); in the test with Human gammaherpesvirus 4 it was 0.25 µg/mL (≈ 0.664 µM). Also, the result (in test [1]; with West Nile virus; with Hepatitis C virus; with Influenza A virus; with Influenza A virus H3N2; in the test with Influenza B virus) was inactive. In addition, the outcome (in test [2]; in the test with Yellow fever virus; with dengue virus type 2; in [3]; with Hepatitis B virus) was inactive.
As to `CCCC(=O)O[C@]1(C)CCC2[C@@H]3C(OC(CC(C)=O)[C@@H]31)[C@](C)(CCC(=O)O)OC(=O)[C@@H]2C` (stereo partly drawn), in the test on Plasmodium falciparum, the IC50 was found to be 20 µg/mL (≈ 44.2 µM).
As for `CO[C@@H]1CC[C@]2(C)OC[C@H](C)C3C[C@@H](C)[C@@H](OC(C)=O)[C@H]4C(C[C@@]1(C)O)OC2[C@@H]34` (stereo partly drawn), in the test with Plasmodium falciparum, the half-inhibitory concentration (IC50) is no less than 50 µg/mL.
In turn, `CC(=O)O[C@H]1[C@H]2C3CC(=O)CCC[C@]4(C)OC[C@H](C)C(C[C@H]1C)[C@@H]2C4O3` (stereo partly drawn) [NOR-ASBESTININ A] gave a 50% inhibitory concentration (IC50) in the test with Plasmodium falciparum of 14 µg/mL (≈ 38.4 µM). In addition, the outcome (in test [1]; with West Nile virus; with Hepatitis C virus; with Influenza A virus; in the test on Influenza A virus H3N2; in the test on Influenza B virus) was inactive. The result (in test [2]; in the test with Yellow fever virus; in the test with dengue virus type 2; in test [3]; in the test on Hepatitis B virus) was inactive.
For `CCCC(=O)O[C@]1(C)CCC2[C@@H]3C4OC(C[C@](C)(O)[C@H](O)CC[C@]4(C)OC(=O)[C@@H]2C)[C@@H]31` (stereo partly drawn) [BRIARELLIN Q], inhibition in the test with Plasmodium falciparum was half-maximal at 3 µg/mL (≈ 6.84 µM) (IC50). This molecule also had an Activity in test [1] of 43%.
In the case of `CO[C@@H]1CC[C@]2(C)OC[C@H](C)C3C[C@@H](C)[C@@H](OC(C)=O)[C@H]4C(C[C@H]1C)OC2[C@@H]34` (stereo partly drawn), the IC50 in the test with Plasmodium falciparum came to 16 µg/mL (≈ 40.6 µM). Besides, the result (in test [1]; in the test with West Nile virus; in the test on Hepatitis C virus; with Influenza A virus; in the test on Influenza A virus H3N2; in the test with Influenza B virus) was inactive. Moreover, the result (in [2]; in the test on Yellow fever virus; in the test on dengue virus type 2; in test [3]; in the test with Hepatitis B virus) was inactive.
Take `C=C1CC2OC3[C@H]4C(C[C@@H](C)[C@@H](OC(C)=O)[C@@H]24)[C@@H](C)CO[C@@]3(C)CC[C@@H]1O` (stereo partly drawn): in the test with Plasmodium falciparum, the concentration for half-maximal inhibition (IC50) was determined as 17 µg/mL (≈ 44.9 µM). Also, the outcome (in test [1]; in the test with West Nile virus; with Hepatitis C virus; with Influenza A virus; in the test on Influenza A virus H3N2; in the test on Influenza B virus) was inactive. For the same molecule, the outcome (in [2]; in the test with Yellow fever virus; with dengue virus type 2; in [3]; in the test on Hepatitis B virus) was inactive.
For `CCCC(=O)O[C@]1(C)CCC2[C@@H]3C4OC(C/C(C)=C\CC[C@]4(C)OC(=O)[C@@H]2C)[C@@H]31` (stereo partly drawn) [BRIARELLIN R], the IC50 in the test with Plasmodium falciparum worked out at 15 µg/mL (≈ 37.1 µM); in the test on CCRF-CEM it was 8.9 µg/mL (≈ 22 µM). The same molecule had an Activity in test [1] of 91%. For the same molecule, the outcome in the test with West Nile virus, in the test on Hepatitis C virus, in the test on Influenza A virus, with Influenza A virus H3N2 and with Influenza B virus was inactive.
